Data published in PubChem BioAssay AID248 (DTP/NCI, 2004).
“And” between values parts separate entries of the source, which are not always exact repeats. Equal values may be shown once. Inconclusive results and toxic doses are left out. No stated cut-off is given here; in the data, active means T/C of 150% or more; inactive means T/C below 125%.

Tested on: L1210 leukemia ip in BDF1 mice, survival T/C
Test: NCI In Vivo Anticancer Drug Screen. Data for tumor model L1210 Leukemia (intraperitoneal) in B6D2F1 (BDF1) mice
Details: endpoint: mean survival time, higher = longer survival
Outline: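 Antitumor effect is assessed in tumor-bearing animals. Survival in the compound arm is compared with a vehicle-dosed control arm and expressed as their quotient.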

[1] = dose: 100.0 mg/kg/injection, schedule: Q01DX009 (ip), vehicle: Klucel (hydroxypropylcellulose) (HPC)
[2] = dose: 200.0 mg/kg/injection, schedule: Q01DX009 (ip), vehicle: Klucel (hydroxypropylcellulose) (HPC)
[3] = dose: 100.0 mg/kg/injection, schedule: Q04DX002 (ip), vehicle: saline with Tween-80
[4] = dose: 200.0 mg/kg/injection, schedule: Q04DX002 (ip), vehicle: saline with Tween-80
[5] = dose: 400.0 mg/kg/injection, schedule: Q04DX002 (ip), vehicle: saline with Tween-80
[6] = dose: 100.0 mg/kg/injection, schedule: Q04DX003 (ip), vehicle: Klucel (hydroxypropylcellulose) (HPC)
[7] = dose: 200.0 mg/kg/injection, schedule: Q04DX003 (ip), vehicle: Klucel (hydroxypropylcellulose) (HPC)
[8] = dose: 400.0 mg/kg/injection, schedule: Q04DX003 (ip), vehicle: Klucel (hydroxypropylcellulose) (HPC)
[9] = dose: 100.0 mg/kg/injection, schedule: Q01DX009 (ip), vehicle: saline with Tween-80
[10] = dose: 200.0 mg/kg/injection, schedule: Q01DX009 (ip), vehicle: saline with Tween-80
[11] = dose: 400.0 mg/kg/injection, schedule: Q01DX009 (ip), vehicle: saline with Tween-80
[12] = dose: 400.0 mg/kg/injection, schedule: Q04DX003 (ip), vehicle: saline with Tween-80
[13] = dose: 100.0 mg/kg/injection, schedule: Q01DX001 (ip), vehicle: saline
[14] = dose: 200.0 mg/kg/injection, schedule: Q01DX001 (ip), vehicle: saline
[15] = dose: 400.0 mg/kg/injection, schedule: Q01DX001 (ip), vehicle: saline

Measured: T/C

CC(=N\NC(N)=S)/C(=N/NC(N)=S)c1ccccc1
inactive: dose: 15.0 mg/kg/injection, schedule: Q01DX Z (ip), vehicle: carboxymethylcellulose (CMC) 107 % of control | dose: 30.0 mg/kg/injection, schedule: Q01DX Z (ip), vehicle: carboxymethylcellulose (CMC) 97 % of control | dose: 60.0 mg/kg/injection, schedule: Q01DX Z (ip), vehicle: carboxymethylcellulose (CMC) 95 % of control and 90 % of control | dose: 120.0 mg/kg/injection, schedule: Q01DX Z (ip), vehicle: carboxymethylcellulose (CMC) 93 % of control and 91 % of control | dose: 120.0 mg/kg/injection, schedule: Q01DX Z (oral), vehicle: carboxymethylcellulose (CMC) 110 % of control | dose: 240.0 mg/kg/injection, schedule: Q01DX Z (oral), vehicle: carboxymethylcellulose (CMC) 100 % of control | dose: 480.0 mg/kg/injection, schedule: Q01DX Z (ip), vehicle: carboxymethylcellulose (CMC) 88 % of control | dose: 480.0 mg/kg/injection, schedule: Q01DX Z (oral), vehicle: carboxymethylcellulose (CMC) 115 % of control | dose: 960.0 mg/kg/injection, schedule: Q01DX Z (oral), vehicle: carboxymethylcellulose (CMC) 104 % of control

C=CCSc1nccnc1C
inactive: dose: 50.0 mg/kg/injection, schedule: Q01DX009 (ip), vehicle: Klucel (hydroxypropylcellulose) (HPC) 100 % of control | [1] 103 % of control | [2] 110 % of control

CC1CCOC(C)(CCl)O1 (centres undefined)
inactive: [3] 98 % of control | [4] 95 % of control | [5] 98 % of control

CC(=O)c1ccc2c3ccccc3n(CCCN3CCC(O)CC3)c2c1
inactive: dose: 100.0 mg/kg/injection, schedule: Q04DX002 (ip), vehicle: saline 95 % of control | dose: 200.0 mg/kg/injection, schedule: Q04DX002 (ip), vehicle: saline 113 % of control

CCCC#CCCCN1CCC2(CC1)C(=O)NCN2c1ccccc1
inactive: dose: 20.0 mg/kg/injection, schedule: Q04DX003 (ip), vehicle: Klucel (hydroxypropylcellulose) (HPC) 103 % of control | dose: 40.0 mg/kg/injection, schedule: Q04DX003 (ip), vehicle: Klucel (hydroxypropylcellulose) (HPC) 103 % of control | dose: 80.0 mg/kg/injection, schedule: Q04DX003 (ip), vehicle: Klucel (hydroxypropylcellulose) (HPC) 91 % of control | [6] 93 % of control

COc1cc(C(=O)O)c(Br)cc1C
inactive: [1] 111 % of control | [6] 103 % of control | [2] 103 % of control | [7] 93 % of control | dose: 400.0 mg/kg/injection, schedule: Q01DX009 (ip), vehicle: Klucel (hydroxypropylcellulose) (HPC) 98 % of control | [8] 95 % of control

CC1C(=O)OCC1C(c1ccccc1)(c1ccccc1)c1ccccc1 (centres undefined)
inactive: dose: 100.0 mg/kg/injection, schedule: Q04DX002 (ip), vehicle: gum acacia 100 % of control | dose: 200.0 mg/kg/injection, schedule: Q04DX002 (ip), vehicle: gum acacia 103 % of control | dose: 400.0 mg/kg/injection, schedule: Q04DX002 (ip), vehicle: gum acacia 89 % of control

COc1ccc(Cl)cc1NC(=O)Oc1ccc(-c2ccccc2)cc1Cl
inactive: [9] 99 % of control | [10] 92 % of control | [11] 91 % of control

CCOc1cccc(Cc2cn(CCC#N)c(=O)[nH]c2=O)c1
inactive: [6] 108 % of control | [7] 89 % of control | [8] 89 % of control

COc1ccc(CNCCNCc2ccc(OC)c(OC)c2)cc1OC
inactive: [9] 97 % of control | dose: 100.0 mg/kg/injection, schedule: Q04DX003 (ip), vehicle: saline with Tween-80 100 % of control | [10] 102 % of control | dose: 200.0 mg/kg/injection, schedule: Q04DX003 (ip), vehicle: saline with Tween-80 93 % of control | [11] 106 % of control | [12] 105 % of control

CN1C(=O)c2c(ccc3c2OCO3)C2C(O)Cc3cc4c(cc3C21)OCO4 (centres undefined)
inactive: [13] 100 % of control | [14] 94 % of control | [15] 107 % of control

Clc1ccc(C=Nc2cccc3ccccc23)cc1Cl
inactive: [9] 95 % of control | [10] 95 % of control | [11] 94 % of control

C#CC(C)(C)C(C(=O)OCC)C(=O)OCC
inactive: dose: 75.0 mg/kg/injection, schedule: Q01DX009 (ip), vehicle: Klucel (hydroxypropylcellulose) (HPC) 102 % of control | dose: 150.0 mg/kg/injection, schedule: Q01DX009 (ip), vehicle: Klucel (hydroxypropylcellulose) (HPC) 100 % of control | dose: 300.0 mg/kg/injection, schedule: Q01DX009 (ip), vehicle: Klucel (hydroxypropylcellulose) (HPC) 97 % of control

CC(C)CCCC(C)C1CCC2C3CC=C4CC(C5C(=O)NC(=O)NC5=O)CCC4(C)C3CCC12C (centres undefined)
inactive: dose: 12.5 mg/kg/injection, schedule: Q04DX003 (ip), vehicle: saline with Tween-80 96 % of control | dose: 25.0 mg/kg/injection, schedule: Q04DX003 (ip), vehicle: saline with Tween-80 96 % of control | dose: 50.0 mg/kg/injection, schedule: Q04DX003 (ip), vehicle: saline with Tween-80 87 % of control | [12] 88 % of control

O=C(NNC(=O)OCC(Cl)(Cl)Cl)OCC(Cl)(Cl)Cl
inactive: dose: 25.0 mg/kg/injection, schedule: Q04DX002 (ip), vehicle: saline with Tween-80 90 % of control | dose: 50.0 mg/kg/injection, schedule: Q04DX002 (ip), vehicle: saline with Tween-80 87 % of control

Cc1ncc2c(=O)[nH]ccn12
inactive: dose: 100.0 mg/kg/injection, schedule: Q04DX003 (ip), vehicle: water 103 % of control | dose: 200.0 mg/kg/injection, schedule: Q04DX003 (ip), vehicle: water 103 % of control | dose: 400.0 mg/kg/injection, schedule: Q04DX003 (ip), vehicle: water 103 % of control

Fc1cc(N(CCCl)CCCl)ccc1C=NCCCN=Cc1ccc(N(CCCl)CCCl)cc1F
inactive: dose: 100.0 mg/kg/injection, schedule: Q01DX001 (ip), vehicle: carboxymethylcellulose (CMC) 95 % of control | dose: 200.0 mg/kg/injection, schedule: Q01DX001 (ip), vehicle: carboxymethylcellulose (CMC) 95 % of control | dose: 400.0 mg/kg/injection, schedule: Q01DX001 (ip), vehicle: carboxymethylcellulose (CMC) 111 % of control

CNC(=O)O/N=C\C=N\OC(=O)NC
inactive: [13] 93 % of control | [14] 98 % of control | [15] 95 % of control

C=CCNc1ncnc2c1cnn2C
inactive: dose: 50.0 mg/kg/injection, schedule: Q01DX009 (ip), vehicle: saline 118 % of control | dose: 100.0 mg/kg/injection, schedule: Q01DX009 (ip), vehicle: saline 103 % of control

CCCCCC1SC1CC1SC1CCCCCCCC(=O)N1CCOCC1 (centres undefined)
inactive: [9] 98 % of control

O=C1CC23CCC12CCCC3=O (centres undefined)
inactive: [3] 100 % of control | [4] 93 % of control | [5] 97 % of control

O=C(c1ccccc1)C(C(=O)c1ccccc1)C(c1ccccc1)C(C(=O)c1ccccc1)C(c1ccccc1)c1ccccc1 (centres undefined)
inactive: [13] 87 % of control | [14] 89 % of control | [15] 92 % of control and 91 % of control

CC(=O)Nc1ccc(S(=O)(=O)N(CCO)c2ccccc2)cc1
inactive: [6] 97 % of control | [7] 90 % of control | [8] 90 % of control

CN(Cc1cnc2nc(N)c([N+](=O)[O-])c(N)c2n1)c1ccc(C(=O)NC(CCC(=O)O)C(=O)O)cc1 (centres undefined)
inactive: dose: 100.0 mg/kg/injection, schedule: Q04DX002 (ip), vehicle: sodium bicarbonate 89 % of control | dose: 200.0 mg/kg/injection, schedule: Q04DX002 (ip), vehicle: sodium bicarbonate 99 % of control

Cc1ccc2ccc3c4ccccc4ccc3[n+]2c1
inactive: dose: 10.0 mg/kg/injection, schedule: Q01DX001 (ip), vehicle: saline 102 % of control | dose: 20.0 mg/kg/injection, schedule: Q01DX001 (ip), vehicle: saline 98 % of control

O=C(O)CCCCCN1C(=O)c2cccnc2C1=O
inactive: dose: 75.0 mg/kg/injection, schedule: Q04DX003 (ip), vehicle: carboxymethylcellulose (CMC) 103 % of control | dose: 150.0 mg/kg/injection, schedule: Q04DX003 (ip), vehicle: carboxymethylcellulose (CMC) 97 % of control | dose: 300.0 mg/kg/injection, schedule: Q04DX003 (ip), vehicle: carboxymethylcellulose (CMC) 98 % of control

COS(=O)(=O)CCC[N+](C)(C)C
inactive: dose: 50.0 mg/kg/injection, schedule: Q01DX001 (ip), vehicle: saline 93 % of control

N#C/C(=C\c1cccnc1)c1ccc(Br)cc1
inactive: dose: 100.0 mg/kg/injection, schedule: Q01DX009 (ip), vehicle: saline sonified 98 % of control | dose: 200.0 mg/kg/injection, schedule: Q01DX009 (ip), vehicle: saline sonified 100 % of control | dose: 400.0 mg/kg/injection, schedule: Q01DX009 (ip), vehicle: saline sonified 93 % of control
